Data published in patent publication EP2787958B1, “CHELIDONIUM MAJUS EXTRACTS AND THEIR USE IN THE TREATMENT OF SKIN DISORDERS AND PROMOTION OF SKIN REGENERATION” (priority 2011, dated 2013).
Read-outs that look alike come from different tables or passages of the source.

What was measured:
[1] = system: interleukin 1β (IL-1β); assay: Inflammatory cytokines in cell supernatant (Mosaic ELISA microarray): IL-1β; format: cell-based, Human; conditions: for IL-1β ng/(ml* No. of cells from photo) ± SD: 24 hours
Procedure: (§1) The inflammatory cytokines, CD40 ligand (CD40L), interferon γ (INF-γ), interleukin 1α (IL-1α), interleukin 1β (IL-1β), interleukin 6 (IL-6), interleukin 8 (IL-8), interleukin 17 (IL-17) and tumour necrosis factor α (TNF-α) were determined qualitatively and quantitatively. Each measurement was performed in duplicate using a Mosaic™ ELISA protein microarray assay system from R&D System in accordance with the supplier's instructions. Furthermore, with the aim of obtaining a correlation model between light signal intensity and cytokine concentration, a calibration curve using 6 concentrations was performed for each of them. Analysis of the data was performed using the dedicated Q-View™ Imager software package from Quansys Biosciences

[2] = system: interleukin 6 (IL-6); assay: Inflammatory cytokines in cell supernatant (Mosaic ELISA microarray): IL-6; format: cell-based, Human; conditions: for IL-6 ng/(ml* No. of cells from photo) ± SD: 24 hours
Procedure: as §1

[3] = Anti-radical activity (decay of the DPPH radical); format: biochemical; conditions: for Anti-radical (skin protective): 24 hours
Procedure: With regard to assays aimed at evaluating anti-radical activity, a chemical test was used where the decay of the diphenylpicrylhydrazyl (DPPH) radical is assessed in the absence or in the presence of the test substances. Indeed, the DPPH radical is used to test the ability of substances to act as free radical scavengers. DPPH in solution has a purple colour with a maximum absorbance peak at 517 nm which changes to yellow-colourless when this radical extracts a hydrogen atom from a radical scavenger to give rise to the reduced form DPPH-H. The assay has been conducted in quadruplicate in 96 well microplates (SARSTEDT Tissue Culture Plate 96-well flat bottom cell+). 50 µl of an ethanol solution of the test substance at 2X concentration and then 50 µl of a 200 µM solution of DPPH (MW 168,18, Aldrich 2,2-di(4-tert-octylphenyl)-1-picrylhydrazyl, free radical Lot# MKBF7574V Cat N° 257621-100 mg) have been added to each well of the microplate. A positive control consisting of 0.1 mM vitamin C and a negative control consisting of ethanol alone were included in each microplate. After 30 minutes from the addition of DPPH, photographs of the plates were taken (Canon PowerShot A610 5.0 Mpixels) and read spectrophotometrically at 530 nm.
Based on the analysis of the results reported in Table 9, some substances were selected for further characterisation of their anti-radical activity. For the selected substances, dose-activity curves were obtained and the IC50 value were computed using a non-linear regression model with the Hill equation at variable slope. Such substances had been selected due to both their anti-radical potential and the easiness of their isolation/production. The selection of substances was made in view of cosmetics applications. Moreover their activity on human dermal fibroblasts (HDF) is expected to be useful also for the development of dermatological medications. The selected substances are discussed below.

[4] = system: HDF cells; assay: Summary of uses and toxic effects deduced from the cell assays (Table 1); format: cell-based, Human; conditions: for Anti-fibrotic (prevention of scar formation, also from acne) / Cytoprotective (antioxidant, anti-inflammatory and anti-ageing; useful also in the treatment of acne) / Cytotoxic / Irritant / Wound-healing: 24 hours
Procedure: Antiradical (skin protective): this is deduced from the free radical scavenger effects.
Revitalizing: this is deduced from the increased mitochondrial dehydrogenase effect.
Cytoprotective, with regard to oxidative damage (antioxidant, anti-inflammatory and anti-ageing): this is deduced from antagonising the stimulation of IL-1β and/or IL-6 induced by 100 µM H2O2 and from the absence of changes in cell morphology similar to the ones due to cell senescence.
Wound healing: this is deduced from the effect of inhibiting the production of IL-1β and by the effect of stimulating cell proliferation under standard growth conditions.
Cytotoxicity: this is deduced from the effect of reducing mitochondrial dehydrogenase activity or from the presence of morphologies characteristic of cell senescence.
Irritation: this is deduced from the effect of increased production of IL-6 and/or IL-1β under standard growth conditions.
Said uses in the fields of medicine and cosmetics or the toxic effects of the substances of the invention at a given dosage, for 24 hours, are summarized in Table 1 below.

[5] = system: collagen produced by HDF cells; assay: Quantity of collagen produced by the cells (elution of Sirius Red)
[6] = system: Human dermal fibroblasts (HDF); assay: Mitochondrial dehydrogenase activity (WST-1 formazan assay) in HDF cells; conditions: for Revitalizing agent: 24 hours; for activity at 1 µM / activity at 10 µM: Homo sapiens, Fibroblast, read-out: % mitochondrial dehydrogenase activity ± SD
Procedure: Human dermal fibroblasts were used for assay at the 3rd T75 passage.
Mitochondrial dehydrogenase activity was measured in HDF, HEK and HUVEC cells by means of the formazan assay, using the WST-1 kit from Roche Diagnostic in accordance with the supplier's instructions. Briefly: the reagent was added (10 µl per well), the incubation was carried out for a further 2 hours or 4 hours, and, at the end of this time, the absorbance was read for 1 s at a wavelength of 450 nm in a Perkin Elmer Victor 2 Wallac microplate reader.
The activity percentage (% mitochondrial dehydrogenase activity) is defined as: % mitochondrial dehydrogenase activity = ((absorbance of treated cells - absorbance of blank) / (absorbance of control - absorbance of blank)) x 100.
The tests were performed with observations after 18 hours, seeding 8,000 cells per well, and after 42 hours, seeding 2,000 cells per well. Furthermore, in order to better analyze the dose/response curves for dihydroberberine, canadine and stylopine, curves were collected at 11 concentrations by seeding 2,000 cells per well with 46 hours incubation.
Dose/response curves are plotted at 6 concentrations. The tests were performed with observations after 24 hours, seeding 8,000 cells per well.

[7] = system: HDF cells; assay: Evaluation of cell proliferation (counting of Sirius Red stained cells in photographs); conditions: for No. of cells from photo ± SD: 24 hours
[8] = Dose 1 µm (coptisine: 1 pm [sic])

SMILES: COc1ccc2c(c[n+](C)c3c4cc5c(cc4ccc23)OCO5)c1OC [chelerythrine]
- IL-1β production (effect in words) ([1]; 1 µM, 34 ng/ml TGF-β1): antagonizes the production of IL-1β
- IL-1β ng/(ml* No. of cells from photo) ± SD ([1]; 1 µM, 34 ng/ml TGF-β1): 98±10 ng/(ml* No. of cells from photo)
- IL-1β production (effect in words) ([1]; 1 µM, 100 µM H2O2): antagonizes the production of IL-1β
- IL-1β ng/(ml* No. of cells from photo) ± SD ([1]; 1 µM, 100 µM H2O2): 69±20 ng/(ml* No. of cells from photo)
- IL-1β ng/(ml* No. of cells from photo) ± SD ([1]; 1 µM, Standard conditions): 96±101 ng/(ml* No. of cells from photo)
- IL-1β production (effect in words) ([1]; 1 µM, standard conditions): inhibits the production of IL-1β
- IL-1β production (effect in words) ([1]; 10 µM, 34 ng/ml TGF-β1): stimulates IL-1β production
- IL-1β ng/(ml* No. of cells from photo) ± SD ([1]; 10 µM, 34 ng/ml TGF-β1): 1632±93 ng/(ml* No. of cells from photo)
- IL-1β production (effect in words) ([1]; 10 µM, 100 µM H2O2): stimulates IL-1β production
- IL-1β ng/(ml* No. of cells from photo) ± SD ([1]; 10 µM, 100 µM H2O2): 1735±469 ng/(ml* No. of cells from photo)
- IL-1β ng/(ml* No. of cells from photo) ± SD ([1]; 10 µM, Standard conditions): 144±4 ng/(ml* No. of cells from photo)
- IL-1β production (effect in words) ([1]; 10 µM, standard conditions): stimulates IL-1β production
- IL-6 production (effect in words) ([2]; 1 µM, 34 ng/ml TGF-β1): antagonizes the production of IL-6
- IL-6 ng/(ml* No. of cells from photo) ± SD ([2]; 1 µM, 34 ng/ml TGF-β1): 510±43 ng/(ml* No. of cells from photo)
- IL-6 production (effect in words) ([2]; 1 µM, 100 µM H2O2): antagonizes the production of IL-6
- IL-6 ng/(ml* No. of cells from photo) ± SD ([2]; 1 µM, 100 µM H2O2): 626±8 ng/(ml* No. of cells from photo)
- IL-6 ng/(ml* No. of cells from photo) ± SD ([2]; 1 µM, Standard conditions): 396±14 ng/(ml* No. of cells from photo)
- IL-6 production (effect in words) ([2]; 1 µM, standard conditions): inhibits the production of IL-6
- IL-6 production (effect in words) ([2]; 10 µM, 34 ng/ml TGF-β1): stimulates IL-6 production
- IL-6 ng/(ml* No. of cells from photo) ± SD ([2]; 10 µM, 34 ng/ml TGF-β1): 4652±243 ng/(ml* No. of cells from photo)
- IL-6 production (effect in words) ([2]; 10 µM, 100 µM H2O2): stimulates IL-6 production
- IL-6 ng/(ml* No. of cells from photo) ± SD ([2]; 10 µM, 100 µM H2O2): 5844±328 ng/(ml* No. of cells from photo)
- IL-6 ng/(ml* No. of cells from photo) ± SD ([2]; 10 µM, Standard conditions): 572±14 ng/(ml* No. of cells from photo)
- IL-6 production (effect in words) ([2]; 10 µM, standard conditions): stimulates IL-6 production
- % DPPH activity ([3]; 1 mM, 30 minutes): 115%
- Anti-radical (skin protective) [3, 8]: No
- Anti-radical (skin protective) ([3]; Dose 10 µm): No
- Anti-fibrotic (prevention of scar formation, also from acne) [4, 8]: Yes (↓collagen, ↓IL-6, ↓IL-1β)
- Cytoprotective (antioxidant, anti-inflammatory and anti-ageing; useful also in the treatment of acne) [4, 8]: Yes (↓IL-6, ↓IL-1β)
- Cytotoxic [4, 8]: No
- Irritant [4, 8]: No
- Wound-healing [4, 8]: Yes (↑prolif, ↓IL-1β)
- Anti-fibrotic (prevention of scar formation, also from acne) ([4]; Dose 10 µm): No
- Cytoprotective (antioxidant, anti-inflammatory and anti-ageing; useful also in the treatment of acne) ([4]; Dose 10 µm): No
- Cytotoxic ([4]; Dose 10 µm): Yes (cell death, ↓dehydrogenase)
- Irritant ([4]; Dose 10 µm): Yes (↑IL-6, ↑IL-1β)
- Wound-healing ([4]; Dose 10 µm): No
- concentrations at which no toxic (cytotoxic and irritant) effects are shown ([4]; exposure for 24 hours): less than or equal to 1 µM
- collagen production (effect in words) ([5]; 1 µM, 34 ng/ml TGF-β1): antagonizes the stimulation of collagen induced by 34 ng/ml TGF-β1
- collagen production (effect in words) ([5]; 1 µM, 100 µM H2O2): tendency to stimulate collagen production
- collagen production (effect in words) ([5]; 1 µM, standard conditions): tendency to inhibit collagen production
- collagen production (effect in words) ([5]; 10 µM, 34 ng/ml TGF-β1): stimulates collagen production
- collagen production (effect in words) ([5]; 10 µM, 100 µM H2O2): stimulates collagen production
- collagen production (effect in words) ([5]; 10 µM, standard conditions): stimulates collagen production
- concentrations above which the predominant effect is inhibition of mitochondrial dehydrogenase activity [6]: higher than 1 nM
- mitochondrial dehydrogenase activity (effect in words) ([6]; 1 µM, 18 h): stimulation of mitochondrial dehydrogenase activity
- Revitalizing agent [6, 8]: Yes
- Revitalizing agent ([6]; Dose 10 µm): No
- activity at 1 µM ([6]; 18 h): 107 ± 10.5%
- activity at 10 µM ([6]; 18 h): 0.87 ± 0.74%
- activity at 1 µM ([6]; 42 h): 63.9 ± 4.3%
- activity at 10 µM ([6]; 42 h): 0.63 ± 8.46%
- inhibitory power toward the mitochondrial dehydrogenase activity ([6]; skin fibroblast cells and/or keratinocytes): marked inhibitory power
- cell proliferation (effect in words) ([7]; 1 µM): tendency to stimulate cell proliferation
- No. of cells from photo ± SD ([7]; 1 µM, 34 ng/ml TGF-β1): 201±15
- No. of cells from photo ± SD ([7]; 1 µM, 100 µM H2O2): 289±14
- No. of cells from photo ± SD ([7]; 1 µM, Standard conditions): 229±20
- cell proliferation (effect in words) ([7]; 10 µM): marked inhibition of proliferation
- No. of cells from photo ± SD ([7]; 10 µM, 34 ng/ml TGF-β1): 10±4
- No. of cells from photo ± SD ([7]; 10 µM, 100 µM H2O2): 10±5
- No. of cells from photo ± SD ([7]; 10 µM, Standard conditions): 3±3

SMILES: O=C1O[C@H]([C@@H](O)CO)C(O)=C1O [vitamin C, reference compound]
- % DPPH activity ([3]; 0.1 mM, positive control): 0%
